# Read-outs that look alike come from different tables or passages of the source.
# Legend:
# [1] = system: sleepiness in PD patients with LID; experiment: Epworth Sleepiness Scale (ESS), Phase 2a study; format: in vivo, human
# Description: The ESS is a self-administered questionnaire with 8 questions. Respondents are asked to rate, on a 4-point scale (0-3), their usual chances of dozing off or falling asleep while engaged in 8 different activities. The ESS score (the sum of 8 item scores, 0-3) can range from 0 to 24. Ratings are based on the previous month, or in the case of this study, the intervening period since the previous clinic visit (about 3 weeks).
# [2] = both, human, in vivo
# [3] = molecular target: T1, 5-HT1A receptors (Homo sapiens, UniProt P08908); settings: cited from earlier work
# T1 sequence (P08908 1-422): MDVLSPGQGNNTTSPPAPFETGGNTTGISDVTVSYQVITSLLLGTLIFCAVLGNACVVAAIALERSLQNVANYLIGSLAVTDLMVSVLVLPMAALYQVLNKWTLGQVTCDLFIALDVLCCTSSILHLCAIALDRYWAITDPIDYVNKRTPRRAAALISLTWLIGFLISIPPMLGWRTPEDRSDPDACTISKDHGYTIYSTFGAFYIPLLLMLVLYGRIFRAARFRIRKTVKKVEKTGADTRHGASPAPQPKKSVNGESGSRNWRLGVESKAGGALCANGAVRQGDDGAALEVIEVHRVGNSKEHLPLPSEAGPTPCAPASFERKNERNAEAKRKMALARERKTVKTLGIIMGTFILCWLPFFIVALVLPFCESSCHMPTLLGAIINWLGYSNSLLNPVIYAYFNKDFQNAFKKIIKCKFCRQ
# [4] = system: pain in PD patients with LID; experiment: King's Parkinson's Disease Pain Scale (KPPS), Phase 2a study; format: in vivo, human
# Description: The KPPS is a rater-interview-based scale conducted with the patient and caregiver (if available). It is a 14-item scale covering 7 domains of pain: • Musculoskeletal pain • Chronic pain • Fluctuation-related pain • Nocturnal pain • Orofacial pain • Edema/swelling; discoloration • Radicular pain Each item is scored by severity (0-3; none to very severe) multiplied by frequency (0-4; never to all the time), for an item sub score of 0-12, resulting in a total score from 0 to 168. Ratings are based on the previous month, or in the case of this study, the intervening period since the previous clinic visit (about 3 weeks). Treatment effects would be analyzed as change from baseline for total score and for individual pain domains.
# [5] = Baseline, Per Protocol Set, n = 15
compound,measurement,setting,value
Cc1ccc(CNCC2(F)CCN(C(=O)c3ccc(F)c(Cl)c3)CC2)nc1 [NLX-112],"ESS, Baseline, mean (S.D.)",[1]; [5],8.3 (5.2)
same,"Sleepiness (ESS), effect",[1]; Days 28 or 42,no consistent statistically significant effect
same,"ESS, Δ D28, mean (S.D.)","[1]; change from baseline at day 28 (end of up-titration period), Per Protocol Set, n = 15",−1.1 (3.3)
same,"ESS, Δ D42, mean (S.D.)","[1]; change from baseline at day 42 (end of stable dosing period), Per Protocol Set, n = 15",−0.9 (3.4)
same,"Befiradol Cmax in female subjects, higher than males by",[2],20%-40%
same,5-HT1A receptor agonist profile,[3],exceptional selectivity for 5-HT1A receptors and full agonist properties
same,5-HT1A receptor agonist profile,[3]; listed as Befiradol,selective and potent
same,Cellular signaling (biased agonist profile),[3]; via G-proteins,preferentially activates specific cellular signaling cascades
same,"KPPS, Baseline, mean (S.D.)",[4]; [5],16.0 (9.9)
same,"KPPS total score, change from baseline",[4]; Day 42,statistically significant improvement
same,"KPPS, Δ D28, mean (S.D.)","[4]; change from baseline at day 28 (end of up-titration period), Per Protocol Set, n = 15, **p < 0.01 vs baseline (LMM)",−4.6 (7.5)**
same,"KPPS, Δ D42, mean (S.D.)","[4]; change from baseline at day 42 (end of stable dosing period), Per Protocol Set, n = 15, **p < 0.01 vs baseline (LMM)",−4.8 (7.8)**

# Source: patent US20260263442A1, “METHOD FOR TREATING L-DOPA-INDUCED DYSKINESIA USING BEFIRADOL” (Neurolixis, Inc., priority 2023, published 2026)
